The record followed here is publication PMC8950151, “Synthesis and Evaluation of the Antifungal and Toxicological Activity of Nitrofuran Derivatives” (Pharmaceutics, 2022).

Converted amounts (≈) assume the structure as drawn.

One data set concerns T. rubrum ATCC MYA-4438. As to the kind of experiment: Quality control of dermatophyte susceptibility assay, MIC90. Particulars: Trichophyton rubrum; T. rubrum ATCC MYA-4438 control strain. Format: cell-based. The procedure:
The experiments were performed according to CLSI […]-A2 [65] for dermatophytes, with minor modifications as described by Costa-Orlandi et al.. The fungal suspensions were adjusted by counting the conidia in the hematocytometer to reach a final concentration of 2.5 × 10^3 cells/mL in RPMI-1640 medium. This was added to the wells at the appropriate compound concentrations and incubated at 35 °C for 96 h with agitation (150 rpm). Visual and colorimetric readings were taken with the addition of 20 μL of 0.03% resazurin [61]. Quality control was performed using the strain of T. rubrum ATCC MYA-4438, with the drug TRB.

Data set [1] has as its system C. krusei (ATCC 6258). The data set can be described thus: Minimum fungicidal concentration (MFC). It is filed as cell-based, Candida krusei. The following applies: Pichia kudriavzevii, ATCC6258.
Data set [2] relates to Histoplasma capsulatum (G217-B/ATCC 26032). The data set can be described thus: microbe, parasite or virus in culture. Format: cell-based. Particulars: ATCC26032.
Data set [3] concerns Candida albicans (ATCC 90028). The data set can be described thus: Susceptibility test (CLSI M27-A3 broth microdilution, resazurin readout), MIC90. It is filed as cell-based. The following applies: ATCC90028, C. albicans, 24 h, 37 °C. (In broth dilution the organism is exposed to a series of concentrations in liquid medium.)
Data set [4] has as its system Candida albicans (ATCC 90028). The data set can be described thus: Minimum fungicidal concentration (MFC). Particulars: ATCC90028, C. albicans. Format: cell-based.
Data set [5] has as its system T. rubrum (ATCC 28289). As to the kind of experiment: Susceptibility assay for dermatophytes (CLSI M38-A2, resazurin), MIC90. It is filed as cell-based. Particulars: Trichophyton rubrum, ATCC28289, 96 h, 35 °C.
For data set [6], the system named is C. glabrata (ATCC 90030). As to the kind of experiment: Minimum fungicidal concentration (MFC). It is filed as cell-based, Candida glabrata. The following applies: Nakaseomyces glabratus, ATCC90030; C. glabrata; read-out: MFC.
Data set [7] relates to Paracoccidioides brasiliensis (Pb 18). The data set can be described thus: microbe, parasite or virus in culture. It is filed as cell-based. The following applies: for MFC: Paracoccidioides brasiliensis.
For data set [8], the system named is Histoplasma capsulatum (G217-B/ATCC 26032). The data set can be described thus: microbe, parasite or virus in culture. It is filed as cell-based. The following applies: ATCC26032, 144 h.
Data set [9] has as its system Cryptococcus neoformans (H99/ATCC 208821). As to the kind of experiment: Susceptibility test (CLSI M27-A3 broth microdilution, resazurin readout), MIC90. It is filed as cell-based. Particulars: ATCC208821, 48 h.
The nature of another data set: in vitro. The following applies: human.
For data set [10], the system named is T. rubrum (ATCC 28289). The data set can be described thus: Minimum fungicidal concentration (MFC). Format: cell-based, Trichophyton rubrum. Particulars: for MFC: Trichophyton rubrum, ATCC28289.
Data set [11] deals with C. glabrata (ATCC 90030). As to the kind of experiment: Susceptibility test (CLSI M27-A3 broth microdilution, resazurin readout), MIC90. It is filed as cell-based, Candida glabrata. The following applies: Nakaseomyces glabratus, ATCC90030, 24 h, 37 °C.
Data set [12] concerns A549 (ATCC CCL-185) lung epithelial cell line. As to the kind of experiment: Cytotoxicity assay in monolayer by resazurin colorimetric method. It is filed as cell-based. Particulars: Homo sapiens, A549 cells, 72 h.
For data set [13], the system named is Cryptococcus neoformans (H99/ATCC 208821). As to the kind of experiment: Minimum fungicidal concentration (MFC). Format: cell-based. The following applies: ATCC208821, C. neoformans.
Data set [14] has as its system Trichophyton mentagrophytes (ATCC 11481). As to the kind of experiment: Susceptibility assay for dermatophytes (CLSI M38-A2, resazurin), MIC90. It is filed as cell-based. Particulars: Trichophyton mentagrophytes, ATCC11481, 96 h, T. mentagrophytes, 35 °C, read-out: MIC90.
Data set [15] shares this test system. The data set can be described thus: Minimum fungicidal concentration (MFC). Format: cell-based. The following applies: Trichophyton mentagrophytes, ATCC11481; T. mentagrophytes.
Data set [16] concerns C. krusei (ATCC 6258). The data set can be described thus: Susceptibility test (CLSI M27-A3 broth microdilution, resazurin readout), MIC90. The following applies: Pichia kudriavzevii, ATCC6258, 24 h. It is filed as cell-based, Candida krusei.
The next data set concerns Candida species. As to the kind of experiment: Susceptibility test (CLSI M27-A3), MIC90, stated for Candida species together. It is filed as cell-based. Particulars: read-out: MIC90 against Candida species, Candida species (C. albicans, C. krusei, C. glabrata) taken together.
A short description of the next data set: in vivo. The following applies: AU37 [glp-4 (bn2) I, sek-1 (km4) X], Caenorhabditis elegans, C. elegans larvae viability. The procedure:
The experiments were carried out with the mutant strain (AU37 [glp-4 (bn2) I; […]]). The strain was maintained on plates containing nematode growth medium (NGM) seeded with Escherichia coli OP50 at 16 °C. The stage of synchronization of young adults at stage L4 was performed for the toxicity test. About 20 larvae were transferred to each well of 96-well plates containing 100 μL of a medium composed of 60% of 50 mM NaCl; 40% BHI broth; 10 mg/mL cholesterol in ethanol; 200 mg/mL ampicillin and 90 mg/mL kanamycin. Then, 100 μL of dilutions of nitrofuran derivatives (showing the best selectivity index against the fungal species) were added. […] Plates were incubated at 25 °C for 24 h. Survival was assessed by the mobility and shape of the nematode (stick-shaped larvae were considered dead, while sinusoidal larvae were considered alive) under an inverted optical microscope on 40× objective lenses.

Consider `CN(C/C=C/C#CC(C)(C)C)Cc1cccc2ccccc12` [TRB, terbinafine], for which the MIC90 in the data set on T. rubrum ATCC MYA-4438 turned out to be 0.03 µg/mL (≈ 0.103 µM).
`O=C(NCCCn1ccnc1)c1ccc([N+](=O)[O-])o1` [Compound 2, N-(3-(1H-imidazol-1-yl)propyl)-5-nitrofuran-2-carboxamide] came in with a melting point of 144 to 148 °C. Also, the MFC in the data set with C. krusei (ATCC 6258) [1] is over 250 µg/mL. Also, the MFC in data set [2] is over 250 µg/mL. Besides, the MIC90 in data set [3] was over 250 µg/mL. Moreover, the MFC in [4] was over 250 µg/mL. The molecule further came in with an MIC90 against T. rubrum (ATCC 28289) [5] of 125 µg/mL (≈ 473 µM). The MFC with C. glabrata (ATCC 90030) [6] was over 250 µg/mL. Moreover, in data set [7], the MFC came out at 125 µg/mL (≈ 473 µM). The MIC90 in data set [8] was determined as 250 µg/mL (≈ 946 µM). In addition, the MIC90 in [9] is at least 250 µg/mL. In addition, 90.8 µg/mL (≈ 343 µM) corresponded to half-maximal inhibition in the data set “in vitro” (IC50). The molecule further had an MFC against T. rubrum (ATCC 28289) [10] of over 250 µg/mL. The molecule also yielded an MIC90 in the data set on C. glabrata (ATCC 90030) [11] of over 250 µg/mL. Also, it took 49.1 µg/mL (≈ 186 µM) to reach half-maximal inhibition in data set [12] (IC50). In data set [13], this molecule had an MFC of at least 250 µg/mL. Further, the MIC90 in [14] was 125 µg/mL (≈ 473 µM). The MFC in data set [15] was 125 µg/mL (≈ 473 µM). In addition, the MIC90 against C. krusei (ATCC 6258) [16] is over 250 µg/mL.
`O=C(/C=C/c1ccccc1)OCc1ccc([N+](=O)[O-])o1` [Compound 1]: the MFC is 31.2 µg/mL (≈ 114 µM) against C. krusei (ATCC 6258) [1]; over 250 µg/mL in [2]; 125 µg/mL (≈ 457 µM) in [4]; over 250 µg/mL in the data set on C. glabrata (ATCC 90030) [6]; 62.5 µg/mL (≈ 229 µM) in [7]; over 250 µg/mL in the data set with T. rubrum (ATCC 28289) [10]. Besides, the MFC is 31.2 µg/mL (≈ 114 µM) in data set [13] and 15.6 µg/mL (≈ 57.1 µM) in data set [15]. For the same molecule, the MIC90 in [3] was 3.9 µg/mL (≈ 14.3 µM); with T. rubrum (ATCC 28289) [5], over 250 µg/mL; in [8], over 250 µg/mL; in data set [9] it was 31.2 µg/mL (≈ 114 µM); against C. glabrata (ATCC 90030) [11], 7.81 µg/mL (≈ 28.6 µM); in [14] it was 15.6 µg/mL (≈ 57.1 µM). Besides, the MIC90 against C. krusei (ATCC 6258) [16] amounted to 31.2 µg/mL (≈ 114 µM); in the data set on Candida species, 3.9 µg/mL (≈ 14.3 µM). Besides, the “fungistatic / fungicidal profile” value in [7] is on record as “fungistatic profile”. Moreover, the IC50 in the data set “in vitro” worked out at 240 µg/mL (≈ 880 µM); in [12] it was 250 µg/mL (≈ 915 µM). In the data set “in vivo”, this molecule gave a viability at 24 h, 250 µg/mL of over 94%.
On to `CS(=O)(=O)c1ccc(C(=O)/C=C/c2ccc([N+](=O)[O-])o2)cc1` [Compound 15, (E)-1-(4-(methylsulfonyl)phenyl)-3-(5-nitrofuran-2-yl)prop-2-en-1-one], for which the melting point is 197 to 200 °C (dec.). Also, in the data set with C. krusei (ATCC 6258) [1], the MFC was over 250 µg/mL. The same molecule registered an MFC in data set [2] of over 250 µg/mL. The molecule further came in with an MIC90 in data set [3] of over 250 µg/mL. Also, the MFC in [4] is over 250 µg/mL. The MIC90 with T. rubrum (ATCC 28289) [5] was determined as 7.8 µg/mL (≈ 24.3 µM). Also, in the data set with C. glabrata (ATCC 90030) [6], the MFC is over 250 µg/mL. In [7], the MFC turned out to be 7.81 µg/mL (≈ 24.3 µM). Besides, the MIC90 in data set [8] was over 250 µg/mL. The MIC90 in [9] was at least 250 µg/mL. Also, in the data set “in vitro”, 11.5 µg/mL (≈ 35.8 µM) corresponded to half-maximal inhibition (IC50). For the same molecule, in the data set on T. rubrum (ATCC 28289) [10], the MFC was 15.6 µg/mL (≈ 48.6 µM). The molecule further displayed an MIC90 in the data set with C. glabrata (ATCC 90030) [11] of over 250 µg/mL. In data set [12], this molecule came in with an IC50 of 34.2 µg/mL (≈ 107 µM). In [13], this molecule showed an MFC of at least 250 µg/mL. In addition, in data set [14], the MIC90 was 7.8 µg/mL (≈ 24.3 µM). The molecule also came in with an MFC in data set [15] of 15.6 µg/mL (≈ 48.6 µM). The molecule also yielded an MIC90 against C. krusei (ATCC 6258) [16] of over 250 µg/mL.
Consider `O=C(/C=C/c1ccc([N+](=O)[O-])o1)c1ccc(Cl)cc1Cl` [Compound 16, (E)-1-(2,4-dichlorophenyl)-3-(5-nitrofuran-2-yl)prop-2-en-1-one], for which the melting point lay in the range of 164 to 165 °C. Also, the MFC against C. krusei (ATCC 6258) [1] was over 250 µg/mL. The MFC in data set [2] is 62.5 µg/mL (≈ 200 µM). In data set [3], this molecule gave an MIC90 of 250 µg/mL (≈ 801 µM). Further, the MFC in [4] is over 250 µg/mL. The molecule further showed an MIC90 with T. rubrum (ATCC 28289) [5] of 7.8 µg/mL (≈ 25 µM). The MFC with C. glabrata (ATCC 90030) [6] was over 250 µg/mL. This molecule gave an MFC in [7] of 1.95 µg/mL (≈ 6.25 µM). In addition, in data set [8], the MIC90 amounted to 62.5 µg/mL (≈ 200 µM). The same molecule returned an MIC90 in data set [9] of at least 250 µg/mL. Besides, inhibition in “in vitro” was half-maximal at 29.9 µg/mL (≈ 95.8 µM) (IC50). Moreover, the “fungistatic / fungicidal profile” value in the data set on T. rubrum (ATCC 28289) [10] (MFC versus MIC90) is recorded as “fungistatic profile”. In the data set with T. rubrum (ATCC 28289) [10], this molecule displayed an MFC of 31.2 µg/mL (≈ 100 µM). For the same molecule, in the data set on C. glabrata (ATCC 90030) [11], the MIC90 was over 250 µg/mL. The same molecule returned an IC50 in data set [12] of 35.6 µg/mL (≈ 114 µM). In data set [13], this molecule gave an MFC of at least 250 µg/mL. The MIC90 in data set [14] amounted to 7.8 µg/mL (≈ 25 µM). The same molecule displayed an MFC in data set [15] of 7.8 µg/mL (≈ 25 µM). The molecule also showed an MIC90 against C. krusei (ATCC 6258) [16] of over 250 µg/mL.

In general, melting point refers to the temperature of the solid-liquid transition. Broadly, the IC50 is the concentration at which inhibition is half-maximal. Lower therefore signals higher potency. Usually viability stands for a read-out of living cells in per cent, often relative to untreated cells.
